For series [1], the target named is T1, wild type androgen receptor (Homo sapiens, UniProt P10275).
T1 construct: expressed in transfected cells; host or cells: A549, transduced, puromycin selected
T1 sequence (P10275 1-920): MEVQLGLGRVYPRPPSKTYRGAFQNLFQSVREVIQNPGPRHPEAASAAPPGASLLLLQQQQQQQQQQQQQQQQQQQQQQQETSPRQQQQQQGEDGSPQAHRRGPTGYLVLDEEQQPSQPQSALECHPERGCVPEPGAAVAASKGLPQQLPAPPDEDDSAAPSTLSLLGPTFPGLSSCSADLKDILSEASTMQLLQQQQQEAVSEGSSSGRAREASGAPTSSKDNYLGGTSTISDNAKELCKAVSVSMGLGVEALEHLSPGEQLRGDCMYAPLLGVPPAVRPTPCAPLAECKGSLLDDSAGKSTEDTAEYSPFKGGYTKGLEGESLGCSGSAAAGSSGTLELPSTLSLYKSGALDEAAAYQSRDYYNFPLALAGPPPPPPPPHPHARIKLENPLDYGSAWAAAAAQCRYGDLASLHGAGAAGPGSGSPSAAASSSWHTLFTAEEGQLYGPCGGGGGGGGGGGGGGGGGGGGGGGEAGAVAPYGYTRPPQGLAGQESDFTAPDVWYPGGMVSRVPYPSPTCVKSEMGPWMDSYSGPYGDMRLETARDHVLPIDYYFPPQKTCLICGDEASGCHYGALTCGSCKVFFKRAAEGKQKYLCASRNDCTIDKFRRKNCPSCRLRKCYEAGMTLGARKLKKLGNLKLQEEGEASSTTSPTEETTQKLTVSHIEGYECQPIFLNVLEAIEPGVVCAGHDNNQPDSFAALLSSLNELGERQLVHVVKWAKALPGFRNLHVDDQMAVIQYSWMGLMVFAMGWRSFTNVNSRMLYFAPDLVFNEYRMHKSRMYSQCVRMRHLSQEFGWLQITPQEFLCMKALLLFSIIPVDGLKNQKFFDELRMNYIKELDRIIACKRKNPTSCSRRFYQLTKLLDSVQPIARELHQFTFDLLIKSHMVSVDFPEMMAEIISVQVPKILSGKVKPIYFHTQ
The series is described as follows: Degradation of overexpressed Androgen Receptor in A549 cells (HiBiT), wild type. As to conditions: A549 cells overexpressing AR WT, cycloheximide, 24 hours. It counts as cell-based. On the procedure:
(§1) A549 cells were transduced to express wild type androgen receptor and Androgen receptor containing the following mutations (L702H, H875Y W742C W742L F877L, T878A and T878A/H875Y) with HiBiT tags. Transduced cells following puromycin selection were maintained in a humidified incubator (at 37° C. and 5% CO2 in the DMEM medium supplemented with 1% (v/v) Pen/Strep, 1% (v/v) Glutamax and 10% (v/v) FBS. A549 cells expressing each AR construct were detached from plate and counted. Cell suspensions at density 0.2 million per mL were prepared. Cell suspension was supplemented with 100 μg/mL of cycloheximide to block protein synthesis. Cells were preincubated with cycloheximide for 1 hr before seeding. Cells were seeded onto 384-well plate at density of 5,000 in 25 μL per well. A two fold serial dilution of test compounds, starting from 1 μM (row A) in 2-fold serial dilution series across the column using Tecan D300e dispenser. […]
(§2) Nano-Glo HiBiT Lytic reagent was prepared by adding LgBiT protein and Nano-Glo® substrate to lytic buffer pre-equilibrated at room temperature following manufacturer protocol (https://www.promega.co.uk/resources/protocols/technical-manuals/101/nanoglo-luciferase-assay-system-protocol). […] The plates were then centrifuged (100×G, 1 min) and incubated on shaker for 10 mins before taking readings on Pherastar Luminescence microplate reader. […]

The target in series [2] is T2, Androgen receptor T878A/H875Y (Homo sapiens, UniProt P10275, H875Y/T878A).
T2 construct: expressed in transfected cells; host or cells: A549, transduced, puromycin selected
T2 sequence (P10275 1-920 H875Y/T878A): T1 sequence (P10275 1-920) with H875Y, T878A
The series is described as follows: Degradation of overexpressed Androgen Receptor in A549 cells (HiBiT), T878A/H875Y. The series is classed as cell-based. As to conditions: A549 cells overexpressing AR T878A.H875Y, cycloheximide, 24 hours. As for the experimental part: as §1, §2
A general note: The HiBiT peptide binds its large partner to form an active luciferase.

Series [3] can be described thus: in vivo. As to conditions: male, Wistar Han, rat, po.
Experimental: (§3) Systemic exposure of various forms of N-((1r,3r)-3-(4-cyano-3-methoxyphenoxy)-2,2,4,4-tetramethylcyclobutyl)-4-(4-((4-(4-(2,4-dioxotetrahydropyrimidin-1(2H)-yl)-1H-pyrazolo[4,3-c]pyridin-1-yl)piperidin-1-yl)methyl)piperidin-1-yl)-3-fluorobenzamide were assessed following oral administration of 30 mg/kg of a suspension formulation (1% methylcellulose (aq)) or following oral administration of 35 mg/kg of a suspension formulation (100% PEG400) in the male Wistar Han rat. […] The sampling period was 72 hours, and the data is reported in the attached table as mean±SD (n=3).
The conditions of series [4]: male, Wistar Han, rat, in vivo, po.
Experimental: as §3

The values that follow come from US12577231B2, “Androgen receptor PROTACS” (GlaxoSmithKline Intellectual Property Development Limited, priority 2023, dated 2026).

Numbering of substitutions follows the chain as printed. Where two headings read alike, the source gives them in different places.

For `COc1cc(O[C@H]2C(C)(C)[C@H](NC(=O)c3ccc(N4CCC(CN5CCC(n6ncc7c(N8CCC(=O)NC8=O)nccc76)CC5)CC4)c(F)c3)C2(C)C)ccc1C#N` [Example 20, N-((1r,3r)-3-(4-Cyano-3-methoxyphenoxy)-2,2,4,4-tetramethylcyclobutyl)-4-(4-((4-(4-(2,4-dioxotetrahydropyrimidin-1(2H)-yl)-1H-pyrazolo[4,3-c]pyridin-1-yl)piperidin-1-yl)methyl)piperidin-1-yl)-3-fluorobenzamide], the “Summary pXC50” value in series [1] is 8.95; in series [2] it was 8.57. Moreover, the AUC0-t worked out at 7220 ± 1220 ng·h/mL in series [3] (30 mg/kg) and 26200 ± 1750 ng·h/mL in series [3] (35 mg/kg). In addition, the peak concentration (Cmax) in series [3] (30 mg/kg) was found to be 318 ± 50 ng/mL; in series [3] (35 mg/kg), 849 ± 98 ng/mL. Besides, the results for the Tmax in series [3] (30 mg/kg) and in series [3] (35 mg/kg) were 8 h and 8.7 ± 3 h, respectively. Moreover, the entries for the “Dose Normalised AUC0-t” value in series [4] (30 mg/kg) and in series [4] (35 mg/kg) were 240 ± 38 (ng · h/mL)/(mg/kg and 744 ± 66 (ng · h/mL)/(mg/kg, respectively.

For orientation: Cmax means the maximum level reached in the sampled fluid or tissue. As usually defined, the Tmax is the time at which the peak concentration occurs.
